Results published in US6489350B1, “Methods for treating neuropathic pain using heteroarylmethanesulfonamides” (Elan Pharmaceuticals, Inc., priority 1999, dated 2002).
“Also recorded” adds a separate entry of the source.

Key:
[1] = tested on: formalin-evoked behavior in diabetic rats; conditions: 50 mg/kg i.p. 30 min pre-test; 5.0% formalin; both control and diabetic rats; cited from earlier work
[2] = tested on: Rats with Streptozotocin (STZ)-Induced Diabetes Mellitus and Consequent Diabetic Neuropathy; experiment: Paw withdrawal force (mechanical hyperalgesia) in rats with streptozotocin-induced diabetes; assay type: in vivo, Male Wistar rats; conditions: for Paw withdrawal threshold force, Week 1 Mean: Week 1, before drug treatment (baseline); for Paw withdrawal threshold force, Week 2 Mean: Week 2, before drug treatment (baseline); for Paw withdrawal threshold force, Week 3 Mean: Week 3, before drug treatment (baseline); for Paw withdrawal threshold force, Week 4 Mean: Week 4, before drug treatment (baseline)
Description: Male Wistar rats (250-300 g), following an overnight fast, were made diabetic with 55 mg/kg i.p. streptozotocin (Sigma, St. Louis, Mo., USA). Tail ven blood was sampled 48 h later and glucose estimated by reflectance photometry (Reflocheck, Boehringer Mannheim). All STZ-treated rats had blood glucose >15 mmol/l and were included in the study. Animals were housed in boxes of three or four and maintained with food and water ad libitum for up to 6 weeks. non-diabetic control rats were housed in identical conditions. Each week (Friday) paw—pressure latency was measured as described immediately below.
A force was applied at a constant rate with a cone-shaped piston to the upper surface of the rat hindpaw until paw withdrawal; the force triggering withdrawal is measured as the “paw withdrawal force”. An arbitrary cut-off force of 240 g was adopted to preclude traumatic damage. Rats are trained such that latency is measured weekly, on Fridays.
At the start of week 5, drug treatments as defined for each of the groups set out below were commenced, such that 5 treatments preceded paw pressure testing. The injections and pressure test were timed so that, for each rat, the pressure test was made between 30 and 35 min after injection.
Monday of week 1 the rats were injected with streptozotocin and blood glucose determinations were made Wednesday of that week, on the Friday the 1st paw pressure test was performed. In weeks 2, 3, and 4 only paw pressure tests were performed on each of the Fridays. In week 5 treatments of groups C, D and E were begun with either zonisarnide (Groups C and D) or MK-801 (Group E) and paw pressure tests were performed on all groups on Friday.
Group B was given a single dose of zonisamide at 50 mg/kg on the Friday of week 6 and paw withdrawal force measured 30 min later.
Group D was maintained without treatment for week 6 (drug “washout”) and measured again on the Friday of week 6.
Data are means with standard deviations. Zonisamide was given once daily (p.o.) between 08:30 and 09:00 for 5 days during Week 5. MK-801 was given at 0.1 mg/kg i.p. twice daily (morning and evening). All measurements were made on Fridays between 10:30 and 13:30 hr. In Week 6, the designated “diabetic untreated” group (Group B) was given a single p.o. dose of 50 mg/kg zonisamide 2-3 h before measurement. For Week 6, drug treatment was withdrawn from Group D (last dose on Friday of week 5).

[3] = tested on: formalin-induced hyperalgesia in rats; experiment: Formalin test model in rats (paw flinches); assay type: in vivo, rat
Description: The formalin test model in rats was conducted based on the protocol developed and reported by Malmberg A. B. and Yaksh T. L. (1992) as an animal model of hyperalgesia.
The formalin pain test produces an “early” pain that rapidly rises and falls in intensity during the first five minutes after the injection, followed by a “late” pain, which begins about 15 minutes after the injection and persists for about an hour. It has been observed that this formalin-induced pain continues even after the nerves carrying pain signals have been blocked which implies that long-lasting pain is determined not only by sensory stimulation during the discomfort but also by brain processes that persist without continual priming.
Eight (8) animals received 100 mg/kg zonisamide via oral (gastric lavage tube) administration, and eight (8) animals received sterile water as a vehicle. On the morning of testing, a small metal band (0.5 g) was loosely placed around the right hind paw. After 1 hour, the rat was placed in a cylindrical plexiglass changer for adaptation. After one additional hour, the rat was then placed in a similar cylindrical chamber that was placed on the sensing pad of an automated formalin device that senses the movement of the metal band in the space above the area above the pad. The formalin test involved injecting 50 μl of 5% formalin into the dorsal surface of the right hindpaw. […] These flinches were counted automatically and continuously over the following one-hour interval. At one hour the animal was removed and sacrificed by carbon dioxide inhalation.
The results of the tests are presented in FIGS. 2A as summations at 5-minute intervals, and in 2B broken down into phase responses. (Phase I being the “early” pain response to the formalin injection and phase II, IIA and IIB being “late” phase parts of the facilitated response state discussed above and in the Detailed Description).

[4] = Group E diabetic, MK-801 0.1 mg/kg group
[5] = Group C diabetic, zonisamide 20 mg/kg group
[6] = Group D diabetic, zonisamide 50 mg/kg group
[7] = 100 mg/kg orally prior to 5% formalin injection, vs water vehicle

NCC1(CC(=O)O)CCCCC1 [Gabapentin, 1-(aminomethyl)cyclohexaneacetic acid]
Flinching during phases 1 and 2 of the formalin test [1]: suppressed flinching

C[C@]12N[C@H](Cc3ccccc31)c1ccccc12 [MK-801, dizocilpine]
Paw withdrawal threshold force, Week 1 Mean [2, 4]: 214.9 g | Paw withdrawal threshold force, Week 2 Mean [2, 4]: 207.1 g | Paw withdrawal threshold force, Week 3 Mean [2, 4]: 200.0 g | Paw withdrawal threshold force, Week 4 Mean [2, 4]: 191.4 g | Paw withdrawal threshold force, Week 5 Mean ([2]; Group E diabetic, 0.1 mg/kg i.p. twice daily for 5 days during Week 5): 221.8 g

NS(=O)(=O)Cc1noc2ccccc12 [zonisamide, 1,2-benzisoxazole-3-methanesulfonamide]
Effect on hyperalgesia (change in paw withdrawal force) ([2]; 20 mg/kg p.o. for 5 days, reduction in tolerated force still present and significant (p<0.0002)): attenuated this hyperalgesia | Effect on hyperalgesia (change in paw withdrawal force) ([2]; 50 mg/kg p.o. daily for 5 days, p=0.703, paired t-test): obliterated the change in paw withdrawal force; also recorded: increase in force necessary to evoke a hyperalgesic pain response | Activity against mechanical hyperalgesia (conclusion) ([2]; 4-5 weeks of STZ diabetes in rats, dose related): active against the mechanical hyperalgesia | Paw withdrawal threshold force, Week 6 Mean ([2]; Group B, previously untreated diabetic rats, single p.o. dose of 50 mg/kg in Week 6): 213.6 g | Paw withdrawal threshold force, Week 1 Mean [2, 5]: 212.2 g | Paw withdrawal threshold force, Week 2 Mean [2, 5]: 206.4 g | Paw withdrawal threshold force, Week 3 Mean [2, 5]: 199.6 g | Paw withdrawal threshold force, Week 4 Mean [2, 5]: 190.0 g | Paw withdrawal threshold force, Week 5 Mean ([2]; Group C diabetic, 20 mg/kg p.o. once daily for 5 days during Week 5): 195.0 g | Paw withdrawal threshold force, Week 1 Mean [2, 6]: 212.72 g | Paw withdrawal threshold force, Week 2 Mean [2, 6]: 208.9 g | Paw withdrawal threshold force, Week 3 Mean [2, 6]: 200.7 g | Paw withdrawal threshold force, Week 4 Mean [2, 6]: 191.5 g | Paw withdrawal threshold force, Week 5 Mean ([2]; Group D diabetic, 50 mg/kg p.o. once daily for 5 days during Week 5): 214.9 g | Paw withdrawal threshold force, Week 6 Mean ([2]; Group D diabetic, Week 6, drug washout, last 50 mg/kg dose on Friday of week 5): 186.2 g | Effect of withdrawal and washout of the drug on hyperalgesia ([2]; one week after treatment with 50 mg/kg for 5 days, p<0.002, 50 mg/kg): return of the hyperalgesia; also recorded: force required to cause a paw withdrawal reaction was reduced | Effect on mechanical hyperalgesia after a single dose ([2]; previously untreated diabetic rats, single 50 mg/kg dose, p<<0.0001, 50 mg/kg): obliterated the mechanical hyperalgesia; also recorded: increase in force necessary to evoke a hyperalgesic pain response | Effect on Phase I flinches [3, 7]: not significant effect | Effect on Phase II flinches [3, 7]: not significant effect | Effect on Phase IIA flinches [3, 7]: statistically significant effect; also recorded: significantly reduced | Effect on Phase IIB flinches [3, 7]: not significant effect | Behavioral deficits ([3]; 100 mg/kg orally, rats): No behavioral deficits were noted
